Measured values as given in US20130125265A1, “AGROBACTERIUM-MEDIATED METHOD FOR PRODUCING TRANSFORMED PLANT” (JAPAN TOBACCO INC., priority 2008, published 2013).

Test system: immature maize embryos (variety: A188)
Experiment: Effect of auxin in coculture medium on regeneration and GUS gene expression in whole plants regenerated without selection from Agrobacterium-inoculated immature maize embryos
Format: cell-based
Details: for Number of immature embryos found to regenerate into whole plants on LSZ medium / Number of immature embryos whose leaf pieces were all GUS-negative / Number of immature embryos with at least one leaf piece showing GUS gene expression: auxin 6.8 μM in coculture medium, 24 immature embryos per auxin; for Number of immature embryos found to regenerate into whole plants on LSZ medium: Agrobacterium LBA4404 (pSB124); for Efficiency of regeneration into whole plants (in words) / Percentage of regenerated plants showing expression of the transgene (in words): comparison of auxins in coculture medium
Method: Maize (variety: A188) immature embryos (1.0 to 1.5 mm in size) at 7 to 14 days after pollination were aseptically collected and washed once with LS-inf liquid medium, followed by pretreatment (thermal treatment at 46° C. for 3 minutes) to increase gene transfer efficiency for transformation enhancement. In LS-inf liquid medium containing 100 μM acetosyringone, Agrobacterium strain LBA4404 (pSB124) (Komari et al., 1996) was suspended to prepare an inoculum.
The thermally-treated immature embryos were mixed with the inoculum, vortexed for 30 seconds, and then allowed to stand for 5 minutes at room temperature. The Agrobacterium-inoculated immature embryos (24 in total) were placed, with their scutella facing up, onto a coculture medium containing dicamba (3,6-dichloro-o-anisic acid) or picloram (4-amino-3,5,6-trichloropicolinic acid) at a concentration of 6.8 μM in LS-AS medium (Ishida et al. 1996; solidified with 8 g/l agarose) which had been prepared to exclude 2,4-D (2,4-dichlorophenoxyacetic acid) and contain 5 μM AgNO3 and 5 μM CuSO4.
On the other hand, LS-AS medium containing 5 μM AgNO3 and 5 μM CuSO4 was supplemented with 1.5 mg/l (6.8 μM) 2,4-D as an auxin member and also used for testing, 24 immature embryos were placed onto this medium.
The immature embryos cultured in the dark at 25° C. for 7 days were placed onto LSZ medium (Ishida et ai., 1996) containing 10 μM CuSO4, and then cultured in the light at 25° C. for about 2 weeks. Leaves of the regenerated whole plants were partially excised and immersed in 0.1 M phosphate buffer (pH 6.8) containing 0.1% Triton X-100 and then allowed to stand at 37° C. for 1 hour. The phosphate buffer was removed and replaced by another phosphate buffer containing 1.0 mM 5-bromo-4-chloro-3-indolyl-β-D-glucuronic acid (X-gluc) and 20% methanol. After treatment at 37° C. for 24 hours, GUS gene expression was analyzed.

Structure (SMILES) | Number of immature embryos found to regenerate into whole plants on LSZ medium (no selection) | Number of immature embryos whose leaf pieces were all GUS-negative (no selection) | Number of immature embryos with at least one leaf piece showing GUS gene expression (no selection) | Efficiency of regeneration into whole plants (in words) | Percentage of regenerated plants showing expression of the transgene (in words) | Number of immature embryos that did not regenerate into plants on LSZ medium (auxin 1.5 mg/l (6.8 μM) in coculture medium, 24 immature embryos, no selection)
COc1c(Cl)ccc(Cl)c1C(=O)O [dicamba, 3,6-dichloro-o-anisic acid] | 24 | 13 | 11 | higher efficiency | increased percentage | –
O=C(O)COc1ccc(Cl)cc1Cl [2,4-D, 2,4-dichlorophenoxyacetic acid] | 21 | – | 4 | – | slightly lower | 3
Nc1c(Cl)c(Cl)nc(C(=O)O)c1Cl [picloram, 4-amino-3,5,6-trichloropicolinic acid] | All of the immature embryos | 15 | 9 | higher efficiency | increased percentage | –
